Measured values taken from patent publication US20080293795A1, “COMBINATION THERAPY WITH PARP INHIBITORS” (ABBOTT LABORATORIES, priority 2006, published 2008).

target: T1, Recombinant Human Poly(ADP-Ribose) Polymerase (PARP) (Homo sapiens, UniProt P09874); test: PARP1 inhibition assay ([3H]-NAD+, biotinylated histone H1, FlashPlate/SPA); assay type: biochemical; conditions: from inhibition curves at various substrate concentrations
T1 construct: purchased Trevigen, Gaithersburg, Md; host or cells: E. coli
T1 sequence (P09874 whole entry): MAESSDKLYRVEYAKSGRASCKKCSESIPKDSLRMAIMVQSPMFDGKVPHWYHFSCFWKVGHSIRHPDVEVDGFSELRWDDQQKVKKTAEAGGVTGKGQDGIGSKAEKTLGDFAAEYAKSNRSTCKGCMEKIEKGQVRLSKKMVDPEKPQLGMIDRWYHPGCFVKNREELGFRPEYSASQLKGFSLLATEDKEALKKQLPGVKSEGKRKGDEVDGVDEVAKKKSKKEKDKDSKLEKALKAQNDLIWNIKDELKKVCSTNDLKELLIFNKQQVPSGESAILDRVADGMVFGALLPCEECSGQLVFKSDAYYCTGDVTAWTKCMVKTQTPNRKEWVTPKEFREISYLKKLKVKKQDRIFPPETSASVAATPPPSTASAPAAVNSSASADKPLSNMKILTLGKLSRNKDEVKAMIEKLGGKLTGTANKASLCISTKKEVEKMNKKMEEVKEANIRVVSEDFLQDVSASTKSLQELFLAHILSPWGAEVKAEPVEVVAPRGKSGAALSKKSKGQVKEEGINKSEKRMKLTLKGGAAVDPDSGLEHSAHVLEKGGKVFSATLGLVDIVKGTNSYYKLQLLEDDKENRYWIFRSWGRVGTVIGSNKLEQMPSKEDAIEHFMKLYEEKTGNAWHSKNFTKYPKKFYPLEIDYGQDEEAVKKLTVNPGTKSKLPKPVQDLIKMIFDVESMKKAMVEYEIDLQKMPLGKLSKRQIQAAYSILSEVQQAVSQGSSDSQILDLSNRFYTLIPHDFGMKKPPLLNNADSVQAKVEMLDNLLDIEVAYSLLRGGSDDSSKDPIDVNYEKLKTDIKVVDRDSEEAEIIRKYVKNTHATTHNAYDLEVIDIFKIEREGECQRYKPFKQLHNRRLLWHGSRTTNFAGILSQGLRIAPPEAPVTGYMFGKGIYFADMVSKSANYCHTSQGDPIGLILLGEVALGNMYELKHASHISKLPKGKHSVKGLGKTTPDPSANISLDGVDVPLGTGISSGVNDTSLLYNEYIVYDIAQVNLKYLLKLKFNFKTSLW
Protocol: Nicotinamide[2,5′,8-3H]adenine dinucleotide and strepavidin SPA beads were purchased from Amersham Biosiences (UK) Recombinant Human Poly(ADP-Ribose) Polymerase (PARP) purified from E. coli and 6-Biotin-17-NAD^+, were purchase from Trevigen, Gaithersburg, Md. NAD^+, Histone, aminobenzamide, 3-amino benzamide and Calf Thymus DNA (dcDNA) were purchased from Sigma, St. Louis, Mo. […] Biotinylated histone H1 was prepared by treating the protein with Sulfo-NHS-LC-Biotin from Pierce Rockford, Ill. […] Streptavidin coated (FlashPlate Plus) microplates were purchased from Perkin Elmer, Boston, Mass.
PARP1 assay was conducted in PARP assay buffer containing 50 mM Tris pH 8.0, 1 mM DTT, 4 mM MgCl2. […] 170 μl of the stopped reaction mixtures were transferred to streptavidin Flash Plates, incubated for 1 hr, and counted using a TopCount microplate scintillation counter.

| Ki [µM] | Structure (SMILES) |
| --- | --- |
| 0.0089 | CC1(c2nc3c(C(N)=O)cccc3[nH]2)CCN(Cc2ccncc2)C1 (stereo not drawn) [2-[3-methyl-1-(pyridin-4-ylmethyl)pyrrolidin-3-yl]-1H-benzimidazole-4-carboxamide] |
| 0.0456 | NC(=O)c1cccc2[nH]c(C3CN(C4CCOCC4)C3)nc12 [2-(1-tetrahydro-2H-pyran-4-ylazetidin-3-yl)-1H-benzimidazole-4-carboxamide] |
| 0.0311 | CC1(c2nc3c(C(N)=O)cccc3[nH]2)CCN1C1CCCC1 (stereo not drawn) [2-(1-cyclopentyl-2-methylazetidin-2-yl)-1H-benzimidazole-4-carboxamide] |
| 0.245 | NC(=O)c1cccc2[nH]c(C3CCN3C3CCCCC3)nc12 (stereo not drawn) [2-(1-cyclohexylazetidin-2-yl)-1H-benzimidazole-4-carboxamide] |
| 0.0072 | CC1(c2nc3c(C(N)=O)cccc3[nH]2)CCN(C2CCOCC2)C1 (stereo not drawn) [2-(3-methyl-1-tetrahydro-2H-pyran-4-ylpyrrolidin-3-yl)-1H-benzimidazole-4-carboxamide] |
| 0.008 | CC1(c2nc3c(C(N)=O)cccc3[nH]2)CN(CC2CC2)C1 [2-[1-(cyclopropylmethyl)-3-methylazetidin-3-yl]-1H-benzimidazole-4-carboxamide] |
| 0.0086 | CCCN1CCC(c2nc3cccc(C(N)=O)c3[nH]2)CC1 [2-(N-propylpiperidin-4-yl)benzimidazole-4-carboxamide] |
| 0.0333 | CC1(c2nc3c(C(N)=O)cccc3[nH]2)CCN1C1CCC1 (stereo not drawn) [2-(1-cyclobutyl-2-methylazetidin-2-yl)-1H-benzimidazole-4-carboxamide] |
| 0.0127 | CC1(c2nc3c(C(N)=O)cccc3[nH]2)CN(C2CCOCC2)C1 [2-(3-methyl-1-tetrahydro-2H-pyran-4-ylazetidin-3-yl)-1H-benzimidazole-4-carboxamide] |
| 0.0193 | CC(C)N1CCC[C@H]1c1nc2c(C(N)=O)cccc2[nH]1 [2-[(2S)-1-isopropylpyrrolidin-2-yl]-1H-benzimidazole-4-carboxamide] |
| 0.007 | CN(C)S(=O)(=O)N1CC(C)(c2nc3c(C(N)=O)cccc3[nH]2)C1 [2-{1-[(dimethylamino)sulfonyl]-3-methylazetidin-3-yl}-1H-benzimidazole-4-carboxamide] |
| 0.0056 | CC(C)CN1CC(C)(c2nc3c(C(N)=O)cccc3[nH]2)C1 [2-(1-isobutyl-3-methylazetidin-3-yl)-1H-benzimidazole-4-carboxamide] |
| 0.146 | CCCN1CCC[C@@H]1c1nc2c(C(N)=O)cccc2[nH]1 [2-[(2R)-1-propylpyrrolidin-2-yl]-1H-benzimidazole-4-carboxamide] |
| 0.016 | CN(C)S(=O)(=O)N1CC(c2nc3c(C(N)=O)cccc3[nH]2)C1 [2-{1-[(dimethylamino)sulfonyl]azetidin-3-yl}-1H-benzimidazole-4-carboxamide] |
| 0.0058 | CC1(c2nc3c(C(N)=O)cccc3[nH]2)CCN(C2CCCCC2)C1 (stereo not drawn) [2-(1-cyclohexyl-3-methylpyrrolidin-3-yl)-1H-benzimidazole-4-carboxamide] |
| 0.049 | CCN1CCC[C@H]1c1nc2c(C(N)=O)cccc2[nH]1 [2-[(2S)-1-ethylpyrrolidin-2-yl]-1H-benzimidazole-4-carboxamide] |
| 0.006 | CC(C)N1CCC(c2nc3c(C(N)=O)cccc3[nH]2)CC1 [2-(1-isopropylpiperidin-4-yl)-1H-benzimidazole-4-carboxamide] |

| Ki [µM] | Structure (SMILES) |
| --- | --- |
| 0.0052 | NC(=O)c1cccc2[nH]c(C3CCN(CC4CC4)C3)nc12 (stereo not drawn) [2-[1-(cyclopropylmethyl)pyrrolidin-3-yl]-1H-benzimidazole-4-carboxamide] |
| 0.0164 | NC(=O)c1cccc2[nH]c(C3CN(C4CCC4)C3)nc12 [2-(1-cyclobutylazetidin-3-yl)-1H-benzimidazole-4-carboxamide] |
| 0.0038 | CC(C)CN1CCC(C)(c2nc3c(C(N)=O)cccc3[nH]2)C1 (stereo not drawn) [2-(1-isobutyl-3-methylpyrrolidin-3-yl)-1H-benzimidazole-4-carboxamide] |
| 0.338 | NC(=O)c1cccc2[nH]c([C@@H]3CCCN3C3CCC3)nc12 [2-[(2S)-1-cyclobutylpyrrolidin-2-yl]-1H-benzimidazole-4-carboxamide] |
| 0.0277 | CC1(c2nc3c(C(N)=O)cccc3[nH]2)CCN1C1CCCCC1 (stereo not drawn) [2-(1-cyclohexyl-2-methylazetidin-2-yl)-1H-benzimidazole-4-carboxamide] |
| 0.08 | NC(=O)c1cccc2[nH]c(C3CCN3C3CCC3)nc12 (stereo not drawn) [2-(1-cyclobutylazetidin-2-yl)-1H-benzimidazole-4-carboxamide] |
| 0.0063 | NC(=O)c1cccc2[nH]c(C3CCN(C4CCC4)CC3)nc12 [2-(1-cyclobutylpiperidin-4-yl)-1H-benzimidazole-4-carboxamide] |
| 0.0042 | CCCN1CCC(C)(c2nc3c(C(N)=O)cccc3[nH]2)C1 (stereo not drawn) [2-(3-methyl-1-propylpyrrolidin-3-yl)-1H-benzimidazole-4-carboxamide] |
| 0.0311 | CN(C)S(=O)(=O)N1CCC(c2nc3c(C(N)=O)cccc3[nH]2)CC1 [2-{1-[(dimethylamino)sulfonyl]piperidin-4-yl}-1H-benzimidazole-4-carboxamide] |
| 0.0132 | CC(CCc1ccccc1)N1CCC(c2nc3c(C(N)=O)cccc3[nH]2)C1 (stereo not drawn) [2-[1-(1-methyl-3-phenylpropyl)pyrrolidin-3-yl]-1H-benzimidazole-4-carboxamide] |
| 0.019 | NC(=O)c1cccc2[nH]c(C3CN(CC4CC4)C3)nc12 [2-[1-(cyclopropylmethyl)azetidin-3-yl]-1H-benzimidazole-4-carboxamide] |
| 0.142 | NC(=O)c1cccc2[nH]c([C@H]3CCCN3C3CCC3)nc12 [2-[(2R)-1-cyclobutylpyrrolidin-2-yl]-1H-benzimidazole-4-carboxamide] |
| 0.0144 | CC(C)CN1CC(c2nc3c(C(N)=O)cccc3[nH]2)C1 [2-(1-isobutylazetidin-3-yl)-1H-benzimidazole-4-carboxamide] |
| 0.0081 | CCCN1CCC(c2nc3c(C(N)=O)cccc3[nH]2)C1 (stereo not drawn) [2-(1-propylpyrrolidin-3-yl)-1H-benzimidazole-4-carboxamide] |
| 0.0119 | CC1(c2nc3c(C(N)=O)cccc3[nH]2)CCCN(C2CCCCC2)CC1 (stereo not drawn) [2-(1-cyclohexyl-4-methylazepan-4-yl)-1H-benzimidazole-4-carboxamide] |
| 0.0061 | CC1(c2nc3c(C(N)=O)cccc3[nH]2)CN(C2CCC2)C1 [2-(1-cyclobutyl-3-methylazetidin-3-yl)-1H-benzimidazole-4-carboxamide] |
| 0.004 | CC1(c2nc3c(C(N)=O)cccc3[nH]2)CN(C2CCCC2)C1 [2-(1-cyclopentyl-3-methylazetidin-3-yl)-1H-benzimidazole-4-carboxamide] |

| Structure (SMILES) | Ki [µM] |
| --- | --- |
| CCCN1CCC(C)(c2nc3c(C(N)=O)cccc3[nH]2)CC1 [2-(4-methyl-1-propylpiperidin-4-yl)-1H-benzimidazole-4-carboxamide] | 0.0135 |

system: HCT-116 tumors; test: HCT-116 tumors in nude mice, combination with radiotherapy; assay type: in vivo; conditions: combination with radiotherapy (2 Gy/day, 10 doses) vs radiotherapy or compound alone; 6.25, 12.5 or 25 mg/kg/day i.p. OMPs 14 days; FIG. 1
Protocol: This study was done in nude mice bearing HCT-116 tumors in the leg. Three days (−3) prior to the beginning of radiotherapy, mice were implanted i.p with OMPs delivering A-620223 at 0, 6.25, 12.5, or 25 mg/kg/day for 14 days. Starting day 0 mice received radiation treatment (2 Gy/day) for 10 doses alone or in combination with the 3 different doses of 2-(N-propylpiperidin-4-yl)benzimidazole-4-carboxamide.

| Structure (SMILES) | reduction of tumor size |
| --- | --- |
| CCCN1CCC(c2nc3cccc(C(N)=O)c3[nH]2)CC1 [2-(N-propylpiperidin-4-yl)benzimidazole-4-carboxamide] | significant improvement in the reduction of tumor size |

system: MX-1 breast carcinoma xenograft; test: MX-1 breast carcinoma xenograft, combination with carboplatin; assay type: in vivo, scid mice; conditions: carboplatin 5, 10, 15 mg/kg/day i.p. day 20, 24, 27; FIG. 4
Source text: This cell line was derived from a person with a poorly differentiated mammary carcinoma.
Data presented in FIG. 4 are mean ±S.E.M. of 8-10 mice per treatment group.

| Structure (SMILES) | tumor inhibition as a single agent |
| --- | --- |
| N.N.O=C([O-])C1(C(=O)[O-])CCC1.[Pt+2] [carboplatin] | dose-dependent tumor inhibition |

same assay, conditions: carboplatin monotherapy 10 mg/kg/day

| Structure (SMILES) | tumor volume course, monotherapy |
| --- | --- |
| N.N.O=C([O-])C1(C(=O)[O-])CCC1.[Pt+2] [carboplatin] | only delayed tumor growth |

system: not listed separately; test: Valproic acid and radiotherapy (FIG. 6); conditions: not given

| Structure (SMILES) | effect on radiotherapy |
| --- | --- |
| CCCC(CCC)C(=O)O [valproic acid] | can enhance the effects of radiotherapy |

system: PC3M-Luc human prostate carcinoma; test: Orthotopic PC3M-Luc human prostate carcinoma model (BLI); assay type: in vivo, male SCID-C.B17 mice; conditions: vs vehicles, p<0.01
Protocol: Bioluminescent PC-3M-luciferase-C6 osteolytic human prostate cancer cells, constitutively expressing luciferase (Caliper Life Sciences, Hopkinton, Mass.) were orthotopically injected into the prostates of 10-week-old male SCID-C.B17 mice (C.B-17/IcrCrl-scid-BR, Charles River Labs). Mice were housed in a facility with constant humidity, temperature and a 12-h light-dark cycle. Mice were anesthetized with intramuscular injections of ketamine (40 mg/kg) and rompum (5 mg/kg) before surgery. The surgical region was shaved and sterilized with iodine and alcohol swabs. A lower midline incision was made to access the prostate. The left lobe of the dorsal prostate was injected with 1×10^6 PC3M-Luc cells (975 photon/second/cell) in 30 μl (1:1 matrigel, Collaborative Biomedical Products, Bedford, Mass.). The peritoneal cavity was closed with 4-0 suture and skin incision was closed with clip.
In vivo bioluminescent image (BLI) was performed with an IVIS® Imaging System (Caliper Life Sciences, Hopkinton, Mass.). […] Images and measurements of bioluminescent signals were acquired and analyzed using Living Image® software (Caliper Life Sciences, Hopkinton, Mass.). Uniform region of interests (ROIs) were used across all groups and time points to achieve quantification of bioluminescent signal. […] The mice were then monitored with this system at weekly intervals. […]

| Structure (SMILES) | efficacy after first treatment schedule (day 30) |
| --- | --- |
| Cn1nnc2c(C(N)=O)ncn2c1=O [TMZ, temozolomide] | significantly better than their vehicles |

system: DoHH-2 flank tumor xenograft; test: not given; conditions: female, Scid, mouse, in vivo

| Structure (SMILES) | Observations (toxicity assessment) |
| --- | --- |
| Cn1nnc2c(C(N)=O)ncn2c1=O [TMZ, temozolomide] | Slight |

same assay, conditions: single agent

| Structure (SMILES) | efficacy at reducing the Mean Tumor Volume, alone |
| --- | --- |
| Cn1nnc2c(C(N)=O)ncn2c1=O [TMZ, temozolomide] | no efficacy |

system: MDA-231-LN-luc cells in the brain striatum; test: not given; conditions: Kaplan-Meier, Logrank; FIG. 23

| Structure (SMILES) | survival to 300% tumor change endpoint |
| --- | --- |
| Cn1nnc2c(C(N)=O)ncn2c1=O [TMZ, temozolomide] | significantly increased survival |

same assay, conditions: after last dose of 2nd cycle

| Structure (SMILES) | Weight loss (Observations) [% after last] |
| --- | --- |
| Cn1nnc2c(C(N)=O)ncn2c1=O [TMZ, temozolomide] | > 10 |

same assay, conditions: dead/total mice

| Structure (SMILES) | Mortality |
| --- | --- |
| Cn1nnc2c(C(N)=O)ncn2c1=O [TMZ, temozolomide] | 0/11 |
